The subject of this test is γH2AX in peripheral blood mononuclear cells (PBMCs). The test is described as follows: γH2AX in peripheral blood cells by flow cytometry (pharmacodynamics). Type of test: in vivo, human. The settings on record: for γ-H2AX positive cells in peripheral blood cells, Post-Day1 dosing / γ-H2AX positive cells in peripheral blood cells, Post-Day5 dosing / γ-H2AX positive cells in peripheral blood cells, Post-Day8 dosing: individual patients. Here is the method: The expression of γH2AX in PBMCs was measured pre and posttreatment using flow cytometry. Effort was made to obtain two baseline (pretreatment) samples on two different days, with the first occurring within 7 days prior to CRT. Serial samples were then collected on days 1 and 5 of treatment, 6-8 hours after each dose, and day 8 prior to the day's dose. Blood samples of 1 mL were drawn into heparinized containing tubes and transferred to a Smart Tube (Thermo Fisher) followed by a 30 min incubation period in a 37°C water bath for activation per manufacture's guidelines. Samples were stored at -80°C until shipment. The frozen Smart Tubes were thawed in a 10-12°C water bath for 20 min before the red blood cells were lysed and intact cells were fixed in 90% methanol and stored at -20°C overnight. Briefly, the methanol fixed cells were washed and blocked in staining buffer (1X PBS containing 0.5 mg/ml BSA) containing TruStain FcX^TM (BioLegend) for 10 min at room temperature. Next, cells were incubated with FITC-conjugated anti-γH2AX […] antibody (BioLegend) for 1 h, washed and DNA stained with propidium iodide (2 μg/ml) before data colection by flow cytometry on CytoflexS. Percent positive γH2AX blood cells was determined by FlowJo software and described as fold-change over baseline for each patient.[16]
On the technique in general: In flow cytometry, cells or beads pass a laser one at a time.

[1] abbreviates: 50 mg/m², alternating with weeks of QOD dosing.

Structures are written as SMILES. Where “and” joins values, the source holds several entries; their conditions need not be identical. Identical values can stand only once.

Regarding `C=CCn1c(=O)c2cnc(Nc3ccc(N4CCN(C)CC4)cc3)nc2n1-c1cccc(C(C)(C)O)n1` [adavosertib], the “γ-H2AX positive cells in peripheral blood cells, Post-Day1 dosing” value is, setting by setting: (50 mg/m², During Weeks 1-6) 1.42 and 1.29; (50 mg/m², alternating weeks) 2.74; under setting [1], 3.17 and 1.03 and 1.31 and 0.12; (95 mg/m², During Weeks 1-6) 2.48 and 3.42 and 1.89; (130 mg/m², During Weeks 1-6) 0.26 and 0.38 and 0.61 and 0.16 and 10.60 and 0.31; (160 mg/m², During Weeks 1-6) 0.96 and 7.75 and 0.95 and 2.25 and 6.62. Further, the “γ-H2AX positive cells in peripheral blood cells, Post-Day1 dosing” value (200 mg/m², During Weeks 1-6) is 0.88 and 2.45 and 17.90 and 0.00. Besides, the “γ-H2AX positive cells in peripheral blood cells, Post-Day5 dosing” value was 1.42 and 0.32 (50 mg/m², During Weeks 1-6); 2.03 (50 mg/m², alternating weeks); 7.63 and 0.70 and 4.90 and 0.15 under setting [1]; 6.31 and 0.55 and 1.63 (95 mg/m², During Weeks 1-6); 0.41 and 0.33 and 2.47 and 0.43 and 3.75 and 0.06 (130 mg/m², During Weeks 1-6); 5.27 and 0.13 and 1.86 and 0.31 and 5.28 (160 mg/m², During Weeks 1-6). Also, for the setting “200 mg/m², During Weeks 1-6”, the “γ-H2AX positive cells in peripheral blood cells, Post-Day5 dosing” value is 3.75 and 3.61 and 16.90 and 0.01 and 6.11. Moreover, the “γ-H2AX positive cells in peripheral blood cells, Post-Day8 dosing” value reads like this: (50 mg/m², During Weeks 1-6) 0.68 and 0.11; (50 mg/m², alternating weeks) 7.24; under setting [1], 1.08 and 2.90 and 2.30 and 0.19; (95 mg/m², During Weeks 1-6) 4.92 and 0.04 and 2.75; (130 mg/m², During Weeks 1-6) 0.48 and 1.08 and 16.50 and 0.50 and 1.49 and 0.00; (160 mg/m², During Weeks 1-6) 5.59 and 5.55 and 0.95 and 3.37 and 3.25. Moreover, the “γ-H2AX positive cells in peripheral blood cells, Post-Day8 dosing” value (200 mg/m², During Weeks 1-6) is 0.40 and 2.17 and 14.70 and 0.01 and 5.81. For the setting “any dose level, with CRT”, the “Change of γH2AX in PBMCs compared to baseline” value was “no significant changes compared to baseline”.
